The record followed here is article PMC10004634 (PLOS ONE, 2023).

Holding throughout (test): biochemical
Common to all, as to set-up: KINOMEscan scanMAX competition binding, DNA-tagged kinases, qPCR read-out, percent control at 300 nM
A general note: Quantitative PCR measures a nucleic acid by following its amplification.

Assay [1] has as its target T1, BIKE (Homo sapiens, UniProt Q9NSY1).
T1 construct: gene BMP2K

For assay [2], the target named is T2, DMPK2 (Homo sapiens, UniProt Q6DT37).
T2 construct: gene CDC42BPG

Assay [3] has as its target T3, FLT3(R834Q) (Homo sapiens, UniProt P36888, R834Q).
T3 sequence (P36888 1-993 R834Q): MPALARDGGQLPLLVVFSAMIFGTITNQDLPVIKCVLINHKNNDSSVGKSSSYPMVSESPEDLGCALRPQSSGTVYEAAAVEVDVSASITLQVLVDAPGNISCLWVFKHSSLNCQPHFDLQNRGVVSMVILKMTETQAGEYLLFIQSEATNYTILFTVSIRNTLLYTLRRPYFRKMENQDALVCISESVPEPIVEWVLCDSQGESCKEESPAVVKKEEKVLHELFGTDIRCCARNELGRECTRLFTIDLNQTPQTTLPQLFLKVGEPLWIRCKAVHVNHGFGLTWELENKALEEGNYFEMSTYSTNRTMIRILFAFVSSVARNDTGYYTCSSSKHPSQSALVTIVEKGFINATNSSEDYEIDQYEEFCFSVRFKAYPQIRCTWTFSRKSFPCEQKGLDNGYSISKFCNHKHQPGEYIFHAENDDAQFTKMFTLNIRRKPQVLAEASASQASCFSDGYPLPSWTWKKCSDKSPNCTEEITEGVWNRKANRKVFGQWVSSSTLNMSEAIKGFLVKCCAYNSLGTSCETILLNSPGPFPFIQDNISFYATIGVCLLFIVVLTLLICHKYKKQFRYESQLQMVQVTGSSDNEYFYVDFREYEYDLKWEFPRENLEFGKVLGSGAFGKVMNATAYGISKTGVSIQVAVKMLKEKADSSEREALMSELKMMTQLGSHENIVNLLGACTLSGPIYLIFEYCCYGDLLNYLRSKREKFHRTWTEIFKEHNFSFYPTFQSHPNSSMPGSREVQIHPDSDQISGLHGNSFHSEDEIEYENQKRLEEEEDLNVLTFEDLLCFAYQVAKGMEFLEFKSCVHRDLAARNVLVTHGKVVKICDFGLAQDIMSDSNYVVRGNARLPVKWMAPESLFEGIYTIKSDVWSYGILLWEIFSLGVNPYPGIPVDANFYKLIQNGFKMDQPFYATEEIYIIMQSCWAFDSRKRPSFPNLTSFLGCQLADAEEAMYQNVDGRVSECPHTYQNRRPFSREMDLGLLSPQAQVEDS

In assay [4] the target is T4, ICK (Homo sapiens, UniProt Q9UPZ9).
T4 construct: gene CILK1
T4 sequence (Q9UPZ9 1-632): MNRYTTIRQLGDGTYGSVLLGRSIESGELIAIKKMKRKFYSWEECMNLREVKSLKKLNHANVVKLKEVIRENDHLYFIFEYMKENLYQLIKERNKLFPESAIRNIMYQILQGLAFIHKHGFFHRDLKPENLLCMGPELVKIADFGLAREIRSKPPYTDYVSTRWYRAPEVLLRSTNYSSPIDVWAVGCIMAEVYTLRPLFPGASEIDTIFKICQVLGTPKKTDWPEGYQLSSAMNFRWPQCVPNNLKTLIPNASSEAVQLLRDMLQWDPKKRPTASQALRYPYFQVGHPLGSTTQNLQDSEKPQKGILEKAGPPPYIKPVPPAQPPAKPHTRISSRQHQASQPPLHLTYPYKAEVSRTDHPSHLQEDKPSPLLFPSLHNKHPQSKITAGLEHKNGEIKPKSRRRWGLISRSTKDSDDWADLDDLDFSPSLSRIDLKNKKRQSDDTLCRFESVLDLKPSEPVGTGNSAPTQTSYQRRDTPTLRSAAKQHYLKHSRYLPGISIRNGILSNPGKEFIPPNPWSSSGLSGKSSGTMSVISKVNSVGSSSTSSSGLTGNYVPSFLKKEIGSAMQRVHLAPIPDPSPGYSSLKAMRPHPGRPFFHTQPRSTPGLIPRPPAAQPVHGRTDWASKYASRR

Assay [5] addresses T5, IKK-epsilon (Homo sapiens, UniProt Q14164).
T5 construct: gene IKBKE
T5 sequence (Q14164 1-716): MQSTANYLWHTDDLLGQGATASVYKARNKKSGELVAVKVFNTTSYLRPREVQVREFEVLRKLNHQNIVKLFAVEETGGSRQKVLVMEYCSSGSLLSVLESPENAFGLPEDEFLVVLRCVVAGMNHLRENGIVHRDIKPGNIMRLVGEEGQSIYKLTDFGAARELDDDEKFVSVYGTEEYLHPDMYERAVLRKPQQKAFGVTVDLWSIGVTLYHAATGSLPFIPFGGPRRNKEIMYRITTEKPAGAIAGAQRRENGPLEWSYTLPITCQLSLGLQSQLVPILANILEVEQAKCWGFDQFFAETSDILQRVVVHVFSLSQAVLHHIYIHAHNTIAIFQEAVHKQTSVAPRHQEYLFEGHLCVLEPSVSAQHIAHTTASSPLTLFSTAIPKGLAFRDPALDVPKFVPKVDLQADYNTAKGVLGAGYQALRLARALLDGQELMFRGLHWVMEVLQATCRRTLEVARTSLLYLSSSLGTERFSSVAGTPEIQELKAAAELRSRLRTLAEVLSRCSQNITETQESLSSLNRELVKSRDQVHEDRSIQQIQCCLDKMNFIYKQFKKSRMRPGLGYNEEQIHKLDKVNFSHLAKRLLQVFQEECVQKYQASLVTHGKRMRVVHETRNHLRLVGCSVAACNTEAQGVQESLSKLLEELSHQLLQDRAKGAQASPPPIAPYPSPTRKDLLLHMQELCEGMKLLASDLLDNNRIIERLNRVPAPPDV

For assay [6], the target named is KIT (Homo sapiens, UniProt P10721).
Assay [7] addresses NEK4 (Homo sapiens, UniProt P51957).
Setting [8] is: read-out: Percent control / Tirabrutinib.
Setting [9] is: read-out: Percent control / Acalabrutinib.
The mark [10] stands for this setting: read-out: Percent control / Ibrutinib.
Setting [11] is: read-out: Percent control / Zanubrutinib.

Each structure is given as a SMILES string. Read-outs that look alike come from different tables or passages of the source.

Chain of NEK4 (P51957 whole entry): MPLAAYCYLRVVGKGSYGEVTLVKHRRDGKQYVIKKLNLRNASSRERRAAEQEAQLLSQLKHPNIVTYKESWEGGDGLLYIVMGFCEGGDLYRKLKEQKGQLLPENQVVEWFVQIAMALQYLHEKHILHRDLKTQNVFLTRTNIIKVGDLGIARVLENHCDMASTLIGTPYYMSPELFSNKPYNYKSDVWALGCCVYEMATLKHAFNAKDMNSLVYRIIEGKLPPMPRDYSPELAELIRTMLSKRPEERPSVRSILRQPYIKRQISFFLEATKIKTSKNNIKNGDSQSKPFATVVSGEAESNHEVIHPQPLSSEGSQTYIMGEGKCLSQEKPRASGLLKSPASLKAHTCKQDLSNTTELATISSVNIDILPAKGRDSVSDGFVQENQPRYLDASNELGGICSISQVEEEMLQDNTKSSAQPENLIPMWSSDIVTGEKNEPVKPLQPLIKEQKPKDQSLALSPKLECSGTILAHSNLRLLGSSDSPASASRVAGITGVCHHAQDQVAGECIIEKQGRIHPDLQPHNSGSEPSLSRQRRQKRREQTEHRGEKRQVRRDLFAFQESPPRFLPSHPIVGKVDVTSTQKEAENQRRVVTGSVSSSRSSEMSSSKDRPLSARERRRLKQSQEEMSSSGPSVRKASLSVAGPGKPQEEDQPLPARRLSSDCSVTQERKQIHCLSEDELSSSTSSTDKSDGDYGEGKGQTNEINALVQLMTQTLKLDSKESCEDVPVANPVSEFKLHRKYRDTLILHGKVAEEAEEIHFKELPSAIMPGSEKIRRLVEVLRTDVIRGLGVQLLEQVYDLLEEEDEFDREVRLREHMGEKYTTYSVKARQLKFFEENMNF
Chain of KIT (P10721 whole entry): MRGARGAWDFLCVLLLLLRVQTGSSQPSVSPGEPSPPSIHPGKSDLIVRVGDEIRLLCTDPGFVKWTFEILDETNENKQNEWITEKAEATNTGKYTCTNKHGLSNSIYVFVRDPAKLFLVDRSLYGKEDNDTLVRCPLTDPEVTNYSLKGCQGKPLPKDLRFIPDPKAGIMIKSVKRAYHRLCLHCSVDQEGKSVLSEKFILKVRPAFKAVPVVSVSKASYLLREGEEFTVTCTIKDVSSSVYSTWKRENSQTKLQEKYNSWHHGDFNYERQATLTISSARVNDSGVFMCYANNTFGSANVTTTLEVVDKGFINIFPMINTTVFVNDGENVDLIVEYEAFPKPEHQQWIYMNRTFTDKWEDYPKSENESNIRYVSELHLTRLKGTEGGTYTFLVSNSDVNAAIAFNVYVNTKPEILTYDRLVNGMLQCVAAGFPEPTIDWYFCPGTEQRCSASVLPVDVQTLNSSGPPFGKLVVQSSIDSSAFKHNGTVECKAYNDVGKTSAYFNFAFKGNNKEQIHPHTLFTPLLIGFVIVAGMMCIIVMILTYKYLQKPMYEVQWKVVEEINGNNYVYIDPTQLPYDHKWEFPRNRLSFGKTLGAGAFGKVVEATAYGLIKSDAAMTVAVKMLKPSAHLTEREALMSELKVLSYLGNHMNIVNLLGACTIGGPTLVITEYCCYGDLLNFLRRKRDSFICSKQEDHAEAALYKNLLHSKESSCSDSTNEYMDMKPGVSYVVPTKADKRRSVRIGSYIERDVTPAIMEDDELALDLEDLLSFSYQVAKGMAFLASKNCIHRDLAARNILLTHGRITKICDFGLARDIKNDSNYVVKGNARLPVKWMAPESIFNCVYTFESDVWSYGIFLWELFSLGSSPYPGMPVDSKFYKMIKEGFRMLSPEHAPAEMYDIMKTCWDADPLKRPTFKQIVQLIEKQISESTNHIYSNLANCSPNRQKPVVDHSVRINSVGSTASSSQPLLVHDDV
T2 sequence (Q6DT37 whole entry): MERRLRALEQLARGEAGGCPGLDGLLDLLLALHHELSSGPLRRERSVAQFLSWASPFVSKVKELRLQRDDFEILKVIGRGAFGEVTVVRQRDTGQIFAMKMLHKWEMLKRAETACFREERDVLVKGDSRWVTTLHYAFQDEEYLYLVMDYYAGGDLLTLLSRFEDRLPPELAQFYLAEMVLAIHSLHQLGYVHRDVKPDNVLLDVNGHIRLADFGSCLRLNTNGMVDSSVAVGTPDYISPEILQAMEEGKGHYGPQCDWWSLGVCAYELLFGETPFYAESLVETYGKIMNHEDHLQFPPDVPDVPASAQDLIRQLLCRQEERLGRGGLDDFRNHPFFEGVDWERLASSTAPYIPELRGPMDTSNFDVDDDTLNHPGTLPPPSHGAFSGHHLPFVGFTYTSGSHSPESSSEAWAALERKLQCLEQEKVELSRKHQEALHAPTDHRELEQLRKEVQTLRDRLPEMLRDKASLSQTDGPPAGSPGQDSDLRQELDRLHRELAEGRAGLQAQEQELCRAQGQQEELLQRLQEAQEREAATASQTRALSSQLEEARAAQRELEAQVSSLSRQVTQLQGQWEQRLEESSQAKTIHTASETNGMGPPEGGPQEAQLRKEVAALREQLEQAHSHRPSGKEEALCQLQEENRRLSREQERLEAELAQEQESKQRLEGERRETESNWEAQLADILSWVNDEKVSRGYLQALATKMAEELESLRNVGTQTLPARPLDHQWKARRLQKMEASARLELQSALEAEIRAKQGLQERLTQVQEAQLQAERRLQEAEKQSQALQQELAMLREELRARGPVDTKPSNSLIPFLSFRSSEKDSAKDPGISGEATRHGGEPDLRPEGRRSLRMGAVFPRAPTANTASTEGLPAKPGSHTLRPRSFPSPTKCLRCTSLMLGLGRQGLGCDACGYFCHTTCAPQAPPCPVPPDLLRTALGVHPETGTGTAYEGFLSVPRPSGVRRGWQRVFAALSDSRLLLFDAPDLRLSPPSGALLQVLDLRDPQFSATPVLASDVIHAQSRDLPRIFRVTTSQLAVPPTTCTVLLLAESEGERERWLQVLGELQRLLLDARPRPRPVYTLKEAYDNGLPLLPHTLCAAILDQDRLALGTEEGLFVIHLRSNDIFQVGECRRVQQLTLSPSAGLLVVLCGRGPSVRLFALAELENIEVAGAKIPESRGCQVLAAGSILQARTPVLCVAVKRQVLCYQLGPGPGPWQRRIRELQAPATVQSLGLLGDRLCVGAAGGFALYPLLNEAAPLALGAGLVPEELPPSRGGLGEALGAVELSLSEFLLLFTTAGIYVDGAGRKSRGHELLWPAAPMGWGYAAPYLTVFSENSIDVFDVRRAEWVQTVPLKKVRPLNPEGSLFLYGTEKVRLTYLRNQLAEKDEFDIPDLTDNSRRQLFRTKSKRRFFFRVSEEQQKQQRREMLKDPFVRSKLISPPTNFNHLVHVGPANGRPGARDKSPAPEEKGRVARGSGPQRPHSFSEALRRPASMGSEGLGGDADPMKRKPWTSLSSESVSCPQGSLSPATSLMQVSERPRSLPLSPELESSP
T1 sequence (Q9NSY1 whole entry): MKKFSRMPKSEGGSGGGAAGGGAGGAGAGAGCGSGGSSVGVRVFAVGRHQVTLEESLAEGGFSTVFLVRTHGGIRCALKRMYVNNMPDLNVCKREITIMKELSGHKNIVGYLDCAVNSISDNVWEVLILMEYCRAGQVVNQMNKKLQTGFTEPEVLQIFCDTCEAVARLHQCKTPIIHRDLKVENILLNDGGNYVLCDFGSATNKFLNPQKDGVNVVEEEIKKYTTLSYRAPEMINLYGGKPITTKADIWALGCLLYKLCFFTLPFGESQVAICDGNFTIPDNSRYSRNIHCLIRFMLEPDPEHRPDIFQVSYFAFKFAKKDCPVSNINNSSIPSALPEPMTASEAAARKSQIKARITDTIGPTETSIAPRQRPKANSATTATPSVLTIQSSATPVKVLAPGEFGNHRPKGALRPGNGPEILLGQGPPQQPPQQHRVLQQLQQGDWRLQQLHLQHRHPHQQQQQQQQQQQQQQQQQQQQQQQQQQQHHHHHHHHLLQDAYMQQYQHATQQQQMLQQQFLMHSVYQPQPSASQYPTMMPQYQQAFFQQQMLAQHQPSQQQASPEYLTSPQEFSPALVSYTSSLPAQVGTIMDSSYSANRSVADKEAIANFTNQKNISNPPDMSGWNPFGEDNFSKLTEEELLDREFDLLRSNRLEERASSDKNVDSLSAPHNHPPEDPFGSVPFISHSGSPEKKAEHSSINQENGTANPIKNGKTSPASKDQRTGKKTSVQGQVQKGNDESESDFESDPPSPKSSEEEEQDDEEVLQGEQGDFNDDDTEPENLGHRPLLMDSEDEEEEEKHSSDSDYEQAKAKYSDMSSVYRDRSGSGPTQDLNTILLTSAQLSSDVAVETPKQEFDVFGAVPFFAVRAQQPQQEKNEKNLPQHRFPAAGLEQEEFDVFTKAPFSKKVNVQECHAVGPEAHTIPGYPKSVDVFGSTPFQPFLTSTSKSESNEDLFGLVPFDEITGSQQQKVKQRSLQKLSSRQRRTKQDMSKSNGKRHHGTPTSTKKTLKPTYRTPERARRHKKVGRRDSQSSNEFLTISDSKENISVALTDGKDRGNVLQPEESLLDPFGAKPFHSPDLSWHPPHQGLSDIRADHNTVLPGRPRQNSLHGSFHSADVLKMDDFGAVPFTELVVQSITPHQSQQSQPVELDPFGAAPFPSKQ

As for `CC#CC(=O)N1CC[C@@H](n2c(=O)n(-c3ccc(Oc4ccccc4)cc3)c3c(N)ncnc32)C1` [Tirabrutinib], the remaining binding at 0.3 µM stood at 88% in assay [1] (setting [8]); 87% in assay [2] (setting [8]); 81% in assay [3] (setting [8]); 60% in assay [4] (setting [8]); 92% in assay [5] (setting [8]); 91% in assay [6] (setting [8]). Also, the remaining binding at 0.3 µM in assay [7] (setting [8]) was 99%.

With `CC#CC(=O)N1CCC[C@H]1c1nc(-c2ccc(C(=O)Nc3ccccn3)cc2)c2c(N)nccn12` [Acalabrutinib], the remaining binding at 0.3 µM in assay [1] (setting [9]) was 94%; in assay [2] (setting [9]) it was 91%; in assay [4] (setting [9]), 82%; in assay [5] (setting [9]), 76%; in assay [6] (setting [9]) it was 91%; in assay [7] (setting [9]), 88%.

On to `C=CC(=O)N1CCC[C@@H](n2nc(-c3ccc(Oc4ccccc4)cc3)c3c(N)ncnc32)C1` [Ibrutinib], for which the remaining binding at 0.3 µM in assay [1] (setting [10]) turned out to be 66%; in assay [2] (setting [10]), 75%; in assay [3] (setting [10]), 55%; in assay [4] (setting [10]), 61%; in assay [5] (setting [10]) it was 83%.

In the case of `C=CC(=O)N1CCC([C@@H]2CCNc3c(C(N)=O)c(-c4ccc(Oc5ccccc5)cc4)nn32)CC1` [Zanubrutinib], the remaining binding at 0.3 µM in assay [3] (setting [11]) is 93%; in assay [5] (setting [11]), 100%; in assay [6] (setting [11]), 100%; in assay [7] (setting [11]), 100%.
